Measured values reported in PubChem BioAssay AID2060513 (Molecular Pharmacology Branch, DTP, NCI, 2025).

Tested on: 299254-011-R-J1-PDC complex spheroids viability
Test: Anticancer human tumor 299254-011-R-J1-PDC patient-derived melanoma cell line growth inhibition [GQUAD]
Conditions: for IC50: curve of first compound; for viability, T/C: stronger effect = lower value
Method in brief: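 Multi-cell-type spheroids of tumor cells with HUVEC and mesenchymal stem cells, treated with drug combinations. Concentrations descend in half-log steps from near clinical Cmax, or from 10 microM where Cmax is unknown; viability read-out.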

[1] = second compound 0.0316 µM, first compound 0.0316 µM
[2] = second compound 0.0316 µM, first compound 0.1 µM
[3] = second compound 0.0316 µM, first compound 0.316 µM
[4] = second compound 0.0316 µM, first compound 1 µM
[5] = second compound 0.0316 µM, first compound 3.16 µM
[6] = second compound 0.0316 µM, first compound 10 µM
[7] = second compound 0.1 µM, first compound 0.0316 µM
[8] = second compound 0.1 µM, first compound 0.1 µM
[9] = second compound 0.1 µM, first compound 0.316 µM
[10] = second compound 0.1 µM, first compound 1 µM
[11] = second compound 0.1 µM, first compound 3.16 µM
[12] = second compound 0.1 µM, first compound 10 µM
[13] = second compound 0.316 µM, first compound 0.0316 µM
[14] = second compound 0.316 µM, first compound 0.1 µM
[15] = second compound 0.316 µM, first compound 0.316 µM
[16] = second compound 0.316 µM, first compound 1 µM
[17] = second compound 0.316 µM, first compound 3.16 µM
[18] = second compound 0.316 µM, first compound 10 µM
[19] = second compound 1 µM, first compound 0.0316 µM
[20] = second compound 1 µM, first compound 0.1 µM
[21] = second compound 1 µM, first compound 0.316 µM
[22] = second compound 1 µM, first compound 1 µM
[23] = second compound 1 µM, first compound 3.16 µM
[24] = second compound 1 µM, first compound 10 µM
[25] = second compound 3.16 µM, first compound 0.0316 µM
[26] = second compound 3.16 µM, first compound 0.1 µM
[27] = second compound 3.16 µM, first compound 0.316 µM
[28] = second compound 3.16 µM, first compound 1 µM
[29] = second compound 3.16 µM, first compound 3.16 µM
[30] = second compound 3.16 µM, first compound 10 µM
[31] = second compound 10 µM, first compound 0.0316 µM
[32] = second compound 10 µM, first compound 0.1 µM
[33] = second compound 10 µM, first compound 0.316 µM
[34] = second compound 10 µM, first compound 1 µM
[35] = second compound 10 µM, first compound 3.16 µM
[36] = second compound 10 µM, first compound 10 µM
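Further: spheroids exposed to the agents for seven days before readout.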
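Wherever viability, T/C is given: percent viability relative to DMSO vehicle control wells = 100%.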

With `C=CCn1c(=O)c2cnc(Nc3ccc(N4CCN(C)CC4)cc3)nc2n1-c1cccc(C(C)(C)O)n1` + Cc1[nH]c2ccc(F)cc2c1-c1nc2c3cccnc3c3ncccc3c2[nH]1 the IC50 (second compound 0.0316 µM) was 1.96 µM, the IC50 (second compound 0.1 µM) was 1.46 µM and the IC50 (second compound 0.316 µM) was 2.12 µM. For the same compound, the IC50 (second compound 1 µM) was 2.07 µM, the IC50 (second compound 3.16 µM) was 1.56 µM and the IC50 (second compound 10 µM) was 0.929 µM. The viability, T/C [1] was 95.6%, the viability, T/C [2] was 101% and the viability, T/C [3] was 101%. For the same compound, the viability, T/C [4] was 69.8%, the viability, T/C [5] was 37.3% and the viability, T/C [6] was 29.8%. The viability, T/C [7] was 117%, the viability, T/C [8] was 112% and the viability, T/C [9] was 115%. The viability, T/C [10] was 59.2%, the viability, T/C [11] was 33.2% and the viability, T/C [12] was 29.2%. It also gave a viability, T/C [13] of 108%, a viability, T/C [14] of 108% and a viability, T/C [15] of 94%. It also gave a viability, T/C [16] of 70.4%, a viability, T/C [17] of 39.1% and a viability, T/C [18] of 25%. The viability, T/C [19] was 109%, the viability, T/C [20] was 92.7% and the viability, T/C [21] was 92.9%. The viability, T/C [22] was 66.2%, the viability, T/C [23] was 39.4% and the viability, T/C [24] was 23.6%. For the same compound, the viability, T/C [25] was 86.1%, the viability, T/C [26] was 91% and the viability, T/C [27] was 102%. The viability, T/C [28] was 62.3%, the viability, T/C [29] was 33% and the viability, T/C [30] was 27.8%. For the same compound, the viability, T/C [31] was 94.4%, the viability, T/C [32] was 81.9% and the viability, T/C [33] was 85.9%. For the same compound, the viability, T/C [34] was 46.9%, the viability, T/C [35] was 26.4% and the viability, T/C [36] was 19.4%.

For `CCCS(=O)(=O)Nc1ccc(F)c(C(=O)c2c[nH]c3ncc(-c4ccc(Cl)cc4)cc23)c1F` + CN(C)c1ccc(Nc2c3ccc(NC(=O)CCN4CCCC4)cc3nc3cc(NC(=O)CCN4CCCC4)ccc23)cc1, the IC50 (second compound 0.0316 µM) was 8.59 µM, the IC50 (second compound 0.1 µM) was 8.1 µM and the IC50 (second compound 0.316 µM) was 8.91 µM. The IC50 (second compound 1 µM) was 7.96 µM, the IC50 (second compound 3.16 µM) was 8.99 µM and the IC50 (second compound 10 µM) was 7.92 µM. It also gave a viability, T/C [1] of 116%, a viability, T/C [2] of 111% and a viability, T/C [3] of 116%. The viability, T/C [4] was 103%, the viability, T/C [5] was 108% and the viability, T/C [6] was 41%. The viability, T/C [7] was 105%, the viability, T/C [8] was 104% and the viability, T/C [9] was 101%. It also gave a viability, T/C [10] of 88.4%, a viability, T/C [11] of 108% and a viability, T/C [12] of 38.5%. The viability, T/C [13] was 106%, the viability, T/C [14] was 111% and the viability, T/C [15] was 89.2%. The viability, T/C [16] was 103%, the viability, T/C [17] was 112% and the viability, T/C [18] was 43.9%. For the same compound, the viability, T/C [19] was 105%, the viability, T/C [20] was 111% and the viability, T/C [21] was 97.4%. The viability, T/C [22] was 88.8%, the viability, T/C [23] was 94.4% and the viability, T/C [24] was 39.5%. For the same compound, the viability, T/C [25] was 98.3%, the viability, T/C [26] was 95.1% and the viability, T/C [27] was 112%. For the same compound, the viability, T/C [28] was 97%, the viability, T/C [29] was 90.1% and the viability, T/C [30] was 45.8%. It also gave a viability, T/C [31] of 110%, a viability, T/C [32] of 146% and a viability, T/C [33] of 116%. It also gave a viability, T/C [34] of 119%, a viability, T/C [35] of 111% and a viability, T/C [36] of 34.5%.

With `Nc1ccn(C2OC(CO)C(O)C2(F)F)c(=O)n1` (stereo unspecified) + CN(C)c1ccc(Nc2c3ccc(NC(=O)CCN4CCCC4)cc3nc3cc(NC(=O)CCN4CCCC4)ccc23)cc1 the IC50 (second compound 0.0316 µM) was > 10 µM, the IC50 (second compound 0.1 µM) was > 10 µM and the IC50 (second compound 0.316 µM) was 3.16 µM. The IC50 (second compound 1 µM) was > 10 µM, the IC50 (second compound 3.16 µM) was > 10 µM and the IC50 (second compound 10 µM) was > 10 µM. For the same compound, the viability, T/C [1] was 84%, the viability, T/C [2] was 73.5% and the viability, T/C [3] was 66.9%. It also gave a viability, T/C [4] of 60.4%, a viability, T/C [5] of 54.7% and a viability, T/C [6] of 59.3%. For the same compound, the viability, T/C [7] was 80.3%, the viability, T/C [8] was 94.6% and the viability, T/C [9] was 67.1%. It also gave a viability, T/C [10] of 56.6%, a viability, T/C [11] of 58.1% and a viability, T/C [12] of 59.7%. The viability, T/C [13] was 85.2%, the viability, T/C [14] was 117% and the viability, T/C [15] was 51.7%. It also gave a viability, T/C [16] of 59.6%, a viability, T/C [17] of 68.3% and a viability, T/C [18] of 56.7%. It also gave a viability, T/C [19] of 93.5%, a viability, T/C [20] of 81.2% and a viability, T/C [21] of 68.7%. It also gave a viability, T/C [22] of 57.8%, a viability, T/C [23] of 63% and a viability, T/C [24] of 72.9%. It also gave a viability, T/C [25] of 94.1%, a viability, T/C [26] of 98.1% and a viability, T/C [27] of 71.3%. It also gave a viability, T/C [28] of 59.7%, a viability, T/C [29] of 55.6% and a viability, T/C [30] of 59%. It also gave a viability, T/C [31] of 105%, a viability, T/C [32] of 80.1% and a viability, T/C [33] of 65.6%. For the same compound, the viability, T/C [34] was 64.3%, the viability, T/C [35] was 66.6% and the viability, T/C [36] was 61.6%.
